Marks after values point to notes of the source that are not given here.
Tested on: BRD pathogens, M. haemolytica and P. multocida
Test: In-vitro MIC model, BRD pathogen screening panel
Assay type: cell-based, Mannheimia haemolytica; Pasteurella multocida
Details: at least one BRD strain

Structure (SMILES)	MIC flag at the example number (Table E)
CCCNC[C@]1(O)[C@H](C)O[C@@H](O[C@H]2[C@H](C)[C@@H](O[C@@H]3O[C@H](C)C[C@H](NC)[C@H]3Oc3ccc(OC)c(OC)c3)[C@](C)(O)C[C@@H](C)CN[C@H](C)[C@@H](O)[C@](C)(O)[C@@H](CC)OC(=O)[C@@H]2C)C[C@@]1(C)OC [Example E-74]	E-74* (MIC ≤ 64 μg/mL for at least one BRD strain)
CCCNC[C@]1(O)[C@H](C)O[C@@H](O[C@H]2[C@H](C)[C@@H](O[C@@H]3O[C@H](C)C[C@H](NC)[C@H]3Oc3ccc(-n4cccc4)cc3)[C@](C)(O)C[C@@H](C)CN[C@H](C)[C@@H](O)[C@](C)(O)[C@@H](CC)OC(=O)[C@@H]2C)C[C@@]1(C)OC [Example E-82]	E-82* (MIC ≤ 64 μg/mL for at least one BRD strain)
CCCNC[C@]1(O)[C@H](C)O[C@@H](O[C@H]2[C@H](C)[C@@H](O[C@@H]3O[C@H](C)C[C@H](N(C)C)[C@H]3Oc3ccccc3Cl)[C@](C)(O)C[C@@H](C)CN[C@H](C)[C@@H](O)[C@](C)(O)[C@@H](CC)OC(=O)[C@@H]2C)C[C@@]1(C)OC [Example E-83]	E-83* (MIC ≤ 64 μg/mL for at least one BRD strain)
CCCNC[C@]1(O)[C@H](C)O[C@@H](O[C@H]2[C@H](C)[C@@H](O[C@@H]3O[C@H](C)C[C@H](N(C)C)[C@H]3Oc3ccc4ccncc4c3)[C@](C)(O)C[C@@H](C)CN[C@H](C)[C@@H](O)[C@](C)(O)[C@@H](CC)OC(=O)[C@@H]2C)C[C@@]1(C)OC [Example E-85]	E-85* (MIC ≤ 64 μg/mL for at least one BRD strain)
CCCNC[C@]1(O)[C@H](C)O[C@@H](O[C@H]2[C@H](C)[C@@H](O[C@@H]3O[C@H](C)C[C@H](N(C)C)[C@H]3Oc3ccc(OC)c(OCC)c3)[C@](C)(O)C[C@@H](C)CN[C@H](C)[C@@H](O)[C@](C)(O)[C@@H](CC)OC(=O)[C@@H]2C)C[C@@]1(C)OC [Example E-88]	E-88* (MIC ≤ 64 μg/mL for at least one BRD strain)
CCCNC[C@]1(O)[C@H](C)O[C@@H](O[C@H]2[C@H](C)[C@@H](O[C@@H]3O[C@H](C)C[C@H](N(C)C)[C@H]3Oc3ccc(C(=O)N4CCCC4)cc3)[C@](C)(O)C[C@@H](C)CN[C@H](C)[C@@H](O)[C@](C)(O)[C@@H](CC)OC(=O)[C@@H]2C)C[C@@]1(C)OC [Example E-95]	E-95* (MIC ≤ 64 μg/mL for at least one BRD strain)
CCCNC[C@]1(O)[C@H](C)O[C@@H](O[C@H]2[C@H](C)[C@@H](O[C@@H]3O[C@H](C)C[C@H](N(C)C)[C@H]3Oc3ccccc3OCC)[C@](C)(O)C[C@@H](C)CN[C@H](C)[C@@H](O)[C@](C)(O)[C@@H](CC)OC(=O)[C@@H]2C)C[C@@]1(C)OC [Example E-96]	E-96* (MIC ≤ 64 μg/mL for at least one BRD strain)
CCCNC[C@]1(O)[C@H](C)O[C@@H](O[C@H]2[C@H](C)[C@@H](O[C@@H]3O[C@H](C)C[C@H](N(C)C)[C@H]3Oc3ccc(OC)cc3OC)[C@](C)(O)C[C@@H](C)CN[C@H](C)[C@@H](O)[C@](C)(O)[C@@H](CC)OC(=O)[C@@H]2C)C[C@@]1(C)OC [Example E-97]	E-97* (MIC ≤ 64 μg/mL for at least one BRD strain)
CCCNC[C@]1(O)[C@H](C)O[C@@H](O[C@H]2[C@H](C)[C@@H](O[C@@H]3O[C@H](C)C[C@H](NC)[C@H]3Oc3ccc(OC(F)(F)F)cc3)[C@](C)(O)C[C@@H](C)CN[C@H](C)[C@@H](O)[C@](C)(O)[C@@H](CC)OC(=O)[C@@H]2C)C[C@@]1(C)OC [Example E-101]	E-101* (MIC ≤ 64 μg/mL for at least one BRD strain)
CCCNC[C@]1(O)[C@H](C)O[C@@H](O[C@H]2[C@H](C)[C@@H](O[C@@H]3O[C@H](C)C[C@H](NC)[C@H]3Oc3ccc(C)cc3)[C@](C)(O)C[C@@H](C)CN[C@H](C)[C@@H](O)[C@](C)(O)[C@@H](CC)OC(=O)[C@@H]2C)C[C@@]1(C)OC [Example E-103]	E-103* (MIC ≤ 64 μg/mL for at least one BRD strain)
CCCNC[C@]1(O)[C@H](C)O[C@@H](O[C@H]2[C@H](C)[C@@H](O[C@@H]3O[C@H](C)C[C@H](NC)[C@H]3Oc3ccc(C(F)(F)F)cc3)[C@](C)(O)C[C@@H](C)CN[C@H](C)[C@@H](O)[C@](C)(O)[C@@H](CC)OC(=O)[C@@H]2C)C[C@@]1(C)OC [Example E-104]	E-104* (MIC ≤ 64 μg/mL for at least one BRD strain)
CCCNC[C@]1(O)[C@H](C)O[C@@H](O[C@H]2[C@H](C)[C@@H](O[C@@H]3O[C@H](C)C[C@H](N(C)C)[C@H]3Oc3ccccc3C#N)[C@](C)(O)C[C@@H](C)CN[C@H](C)[C@@H](O)[C@](C)(O)[C@@H](CC)OC(=O)[C@@H]2C)C[C@@]1(C)OC [Example E-105]	E-105* (MIC ≤ 64 μg/mL for at least one BRD strain)
CCCNC[C@]1(O)[C@H](C)O[C@@H](O[C@H]2[C@H](C)[C@@H](O[C@@H]3O[C@H](C)C[C@H](NC)[C@H]3Oc3ccc(Cl)cc3)[C@](C)(O)C[C@@H](C)CN[C@H](C)[C@@H](O)[C@](C)(O)[C@@H](CC)OC(=O)[C@@H]2C)C[C@@]1(C)OC [Example E-106]	E-106* (MIC ≤ 64 μg/mL for at least one BRD strain)
CC[C@H]1OC(=O)[C@H](C)[C@@H](O[C@H]2C[C@@](C)(OC)[C@](O)(CNCCN(C)C)[C@H](C)O2)[C@H](C)[C@@H](O[C@@H]2O[C@H](C)C[C@H](N(C)C)[C@H]2Oc2ccc(OC)cc2)[C@](C)(O)C[C@@H](C)CN[C@H](C)[C@@H](O)[C@]1(C)O [Example E-107]	E-107* (MIC ≤ 64 μg/mL for at least one BRD strain)
CCCN(C[C@]1(O)[C@H](C)O[C@@H](O[C@H]2[C@H](C)[C@@H](O[C@@H]3O[C@H](C)C[C@H](NC)[C@H]3Oc3ncccn3)[C@](C)(O)C[C@@H](C)CN[C@H](C)[C@@H](O)[C@](C)(O)[C@@H](CC)OC(=O)[C@@H]2C)C[C@@]1(C)OC)c1ncccn1 [Example E-118]	E-118* (MIC ≤ 64 μg/mL for at least one BRD strain)
CCCN(C[C@]1(O)[C@H](C)O[C@@H](O[C@H]2[C@H](C)[C@@H](O[C@@H]3O[C@H](C)C[C@H](NC)[C@H]3Oc3ncc(Cl)cn3)[C@](C)(O)C[C@@H](C)CN[C@H](C)[C@@H](O)[C@](C)(O)[C@@H](CC)OC(=O)[C@@H]2C)C[C@@]1(C)OC)c1ncc(Cl)cn1 [Example E-119]	E-119* (MIC ≤ 64 μg/mL for at least one BRD strain)
CCCN(C[C@]1(O)[C@H](C)O[C@@H](O[C@H]2[C@H](C)[C@@H](O[C@@H]3O[C@H](C)C[C@H](NC)[C@H]3Oc3ncc(C#N)cn3)[C@](C)(O)C[C@@H](C)CN[C@H](C)[C@@H](O)[C@](C)(O)[C@@H](CC)OC(=O)[C@@H]2C)C[C@@]1(C)OC)c1ncc(C#N)cn1 [Example E-122]	E-122* (MIC ≤ 64 μg/mL for at least one BRD strain)
CCCNC[C@]1(O)[C@H](C)O[C@@H](O[C@H]2[C@H](C)[C@@H](O[C@@H]3O[C@H](C)C[C@H](N(C)C)[C@H]3Oc3cccc(C)c3)[C@](C)(O)C[C@@H](C)CN[C@H](C)[C@@H](O)[C@](C)(O)[C@@H](CC)OC(=O)[C@@H]2C)C[C@@]1(C)OC [Example E-123]	E-123* (MIC ≤ 64 μg/mL for at least one BRD strain)
CCCNC[C@]1(O)[C@H](C)O[C@@H](O[C@H]2[C@H](C)[C@@H](O[C@@H]3O[C@H](C)C[C@H](N(C)C)[C@H]3Oc3ccc(OC)nc3)[C@](C)(O)C[C@@H](C)CN[C@H](C)[C@@H](O)[C@](C)(O)[C@@H](CC)OC(=O)[C@@H]2C)C[C@@]1(C)OC [Example E-133]	E-133* (MIC ≤ 64 μg/mL for at least one BRD strain)
